Measurements: ChEMBL document CHEMBL1201862, “PubChem BioAssay data set” (2004)
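1) Cells in 96-well plates. 2) Compound, 48 h, 5 concentrations. 3) Linear interpolation between surrounding doses. 4) Unreached endpoint = highest concentration. GI50 = concentration required for 50% inhibition of growth.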 Active and inactive are the calls of the source. Cut-off read from the data, not from the text of the source: active = GI50 up to about 1.1 µM and inactive = higher.

How the values were obtained:
Test in all cases: DTP human tumour cell line panel, 48 h
SR = test system: SR
T47D = test system: T47D
CAKI-1 = test system: CAKI-1
KM12 = test system: KM12
OVCAR-4 = test system: OVCAR-4
IGROV-1 = test system: IGROV-1
OVCAR-3 = test system: OVCAR-3
M14 = test system: M14
786-0 = test system: 786-0
PC-3 = test system: PC-3
SF-268 = test system: SF-268
RPMI-8226 = test system: RPMI-8226
CCRF-CEM = test system: CCRF-CEM
SK-MEL-5 = test system: SK-MEL-5
MDA-N = test system: MDA-N
K562 = test system: K562
SF-295 = test system: SF-295
UO-31 = test system: UO-31
SK-MEL-2 = test system: SK-MEL-2

Measured: GI50

CC(=O)Nc1ccc(NC(=O)c2c(Cl)c(Cl)c(Cl)c(Cl)c2-c2nc3ccccc3[nH]2)cc1
inactive: SR 27.2 µM | T47D 25.7 µM | CAKI-1 38.7 µM | KM12 28.2 µM | OVCAR-4 45.2 µM | IGROV-1 20.5 µM | OVCAR-3 48.1 µM | M14 35.7 µM | 786-0 49.1 µM | PC-3 44.7 µM | SF-268 53.5 µM | RPMI-8226 23 µM | CCRF-CEM 32.7 µM | SK-MEL-5 28.6 µM | MDA-N 35.3 µM | K562 27.5 µM | SF-295 38.3 µM | UO-31 47.5 µM

COc1cc(C2SC(C)C(=O)N2c2ccc(-c3csc(NS(=O)(=O)c4ccc(Cl)c(OC)c4)n3)cc2)ccc1O (stereo not given)
inactive: SR 23.9 µM | T47D 40.5 µM | CAKI-1 > 100 µM | KM12 22.5 µM | OVCAR-4 26.3 µM | IGROV-1 44.9 µM | OVCAR-3 56.4 µM | M14 > 100 µM | 786-0 67.3 µM | PC-3 > 100 µM | SF-268 29.4 µM | CCRF-CEM 14.6 µM | SK-MEL-5 > 100 µM | MDA-N 41.2 µM | K562 34 µM | SK-MEL-2 48.5 µM | SF-295 > 100 µM | UO-31 > 100 µM

CC1(C)CCC[C@](C)([C@H]2CC[C@]3(C)[C@@H]2[C@H](O)C[C@@H]2[C@@]4(C)CC[C@H](O)C(C)(C)[C@@H]4[C@H](O)C[C@]23C)O1
inactive: SR 5.31 µM | T47D 10.6 µM | CAKI-1 5.6 µM | KM12 11.1 µM | OVCAR-4 10.6 µM | IGROV-1 17.5 µM | M14 14.9 µM | 786-0 19 µM | PC-3 10.9 µM | SF-268 13.8 µM | CCRF-CEM 3.09 µM | SK-MEL-5 3.64 µM | MDA-N 13.5 µM | K562 5.48 µM | SK-MEL-2 13 µM | SF-295 10.5 µM | UO-31 11.7 µM

O=C1/C(=C/c2cccc3ccccc23)CCc2ccc([N+](=O)[O-])cc21
inactive: SR > 10 µM | T47D 21 µM | CAKI-1 24.8 µM | KM12 6.32 µM | IGROV-1 31.4 µM | OVCAR-3 3.22 µM | M14 24.4 µM | 786-0 23.3 µM | PC-3 24.5 µM | SF-268 33.7 µM | RPMI-8226 11.8 µM | CCRF-CEM 60.8 µM | MDA-N 8.81 µM | K562 7.16 µM | SF-295 11.9 µM | UO-31 33.7 µM

COC1CC(N)C(O)C(C)O1 (stereo not given)
inactive: SR > 100 µM | T47D > 100 µM | CAKI-1 > 100 µM | KM12 > 100 µM | OVCAR-4 > 100 µM | IGROV-1 > 100 µM | OVCAR-3 > 100 µM | M14 > 100 µM | 786-0 > 100 µM | PC-3 > 100 µM | SF-268 > 100 µM | RPMI-8226 > 100 µM | CCRF-CEM > 100 µM | SK-MEL-5 > 100 µM | MDA-N > 100 µM | K562 > 100 µM | SF-295 > 100 µM | UO-31 > 100 µM

CN(C)P(=O)(Oc1occc1C(O)Cc1ccccc1)N(C)C (stereo not given)
inactive: T47D > 100 µM | CAKI-1 > 100 µM | KM12 > 100 µM | OVCAR-4 > 100 µM | OVCAR-3 > 100 µM | M14 > 100 µM | 786-0 > 100 µM | PC-3 > 100 µM | SF-268 > 100 µM | RPMI-8226 > 100 µM | CCRF-CEM > 100 µM | SK-MEL-5 > 100 µM | MDA-N > 100 µM | SK-MEL-2 > 100 µM | SF-295 > 100 µM | UO-31 > 100 µM

CC(=O)O[C@H]1C#C/C=C\C#CC[C@@H]2C(=O)N[C@@H]12
inactive: T47D 52.7 µM | CAKI-1 4.5 µM | KM12 > 100 µM | OVCAR-4 > 100 µM | IGROV-1 22.8 µM | OVCAR-3 > 78.3 µM | M14 43.8 µM | 786-0 5.42 µM | PC-3 > 100 µM | SF-268 18.6 µM | RPMI-8226 21.3 µM | CCRF-CEM 4.13 µM | SK-MEL-5 29.9 µM | MDA-N 81.7 µM | K562 > 62.8 µM | SK-MEL-2 67.8 µM | SF-295 24.5 µM | UO-31 3.13 µM

O=C(O)/C(=C/c1ccccc1)c1ccccc1
inactive: T47D > 100 µM | CAKI-1 > 100 µM | KM12 > 100 µM | OVCAR-4 > 100 µM | IGROV-1 > 100 µM | OVCAR-3 > 100 µM | M14 > 100 µM | 786-0 > 100 µM | PC-3 > 100 µM | SF-268 > 100 µM | RPMI-8226 > 100 µM | CCRF-CEM > 100 µM | SK-MEL-5 > 100 µM | MDA-N > 100 µM | K562 > 100 µM | SK-MEL-2 > 100 µM | SF-295 > 100 µM | UO-31 > 100 µM

CCN(C(=O)N[C@@H](Cc1ccccc1)C(=O)N[C@@H](CC(C)C)C(=O)NC)c1ccccc1
inactive: T47D > 100 µM | CAKI-1 > 100 µM | KM12 > 100 µM | OVCAR-4 > 100 µM | IGROV-1 > 100 µM | OVCAR-3 > 100 µM | M14 > 100 µM | 786-0 > 100 µM | PC-3 > 100 µM | RPMI-8226 77.1 µM | CCRF-CEM > 100 µM | SK-MEL-5 > 100 µM | MDA-N > 100 µM | K562 > 100 µM | SK-MEL-2 > 100 µM | SF-295 > 100 µM | UO-31 > 100 µM

O=[N+]([O-])c1ccc(NN=C2CN3CCN(C2)c2ccccc23)c([N+](=O)[O-])c1
inactive: SR > 100 µM | T47D > 100 µM | CAKI-1 > 100 µM | KM12 > 100 µM | OVCAR-4 > 100 µM | IGROV-1 97.3 µM | OVCAR-3 > 100 µM | M14 > 100 µM | 786-0 > 100 µM | PC-3 > 100 µM | SF-268 > 100 µM | CCRF-CEM > 100 µM | SK-MEL-5 > 100 µM | MDA-N > 100 µM | K562 > 100 µM | SF-295 > 100 µM | UO-31 > 100 µM

O=C1C2C(C(=O)N1c1ccccc1)C1(c3ccccc3)CCC2(C(=O)c2ccccc2)O1 (stereo not given)
inactive: T47D > 10 µM | CAKI-1 > 10 µM | KM12 > 10 µM | OVCAR-4 > 10 µM | IGROV-1 > 10 µM | OVCAR-3 > 10 µM | M14 > 10 µM | 786-0 > 10 µM | PC-3 > 10 µM | SF-268 > 10 µM | RPMI-8226 > 10 µM | CCRF-CEM > 10 µM | SK-MEL-5 > 10 µM | MDA-N > 10 µM | SK-MEL-2 > 10 µM | SF-295 > 10 µM | UO-31 > 10 µM
